Measurements from patent US20100093795A1, “Piperidine Derivative Used for Treating Chemokine Receptor 5 Mediated Diseases” (priority 2006, published 2010).

Experiment: Rat pharmacokinetics after intravenous and oral dosing (Example 3)
Assay type: in vivo
Conditions: Alderley Park Han Wistar; male rat (Han Wistar), oral 2 mg/kg vs intravenous 2 mg/kg, whole blood; read-out: F (bioavailability)
Experimental: The rat pharmacokinetic (PK) parameters blood clearance (CL), volume of distribution (Vdss) and half life (t½) are calculated by determining the concentration (exposure) of test compound in whole blood samples taken from rats at various, defined time points subsequent to the intra-venous dosing (administration) of formulated test compound. The rat PK parameter bioavailability (F) is calculated by determining the concentration (exposure) of test compound in whole blood samples taken from rats at various, defined time-points subsequent to the oral dosing (administration) of formulated test compound and then by comparison of the ratio of the dose normalized total oral exposure (AUCpo) with the dose normalized total intra-venous exposure (AUCiv). Fraction absorbed (Fabs) is a secondary PK parameter that is often calculated from a knowledge of the clearance (CL) and bioavailability (F) of a test compound. […]
Calibration standard samples are prepared by addition of known amounts of test compound to blank diluted (1:1) blood samples. […] Following centrifugation, sample and calibration standard supernatants are analysed for test compound concentration by HPLC with MS/MS (triple quad mass spectrometry) detection. Quantification of test compound concentrations in the blood samples taken from the rats is achieved by reference to a standard curve constructed from the calibration standard samples. […]

bioavailability [%] | SMILES
28 | CCc1nnc(C(C)C)n1C1CCN([C@H](C)C[C@@H](c2cc(F)cc(F)c2)C2CCN(S(C)(=O)=O)CC2)CC1 (single isomer, unassigned)
1 | Cc1nnc(C(C)C)n1C1CCN(C(C)C[C@@H](c2cc(F)cc(F)c2)C2CCN(S(C)(=O)=O)CC2)CC1 (single isomer, unassigned) [Comparator Compound A]
